Laboratory results taken from patent publication US20230009608A1, “GRK2 INHIBITORS AND USES THEREOF” (Cygnal Therapeutics, Inc., priority 2020, published 2023).
Read-outs that look alike come from different tables or passages of the source.

How the values were obtained:
GRK2 = molecular target: T1, GRK2 (Homo sapiens, UniProt P25098); assay: ADPGlo GRK2 Inhibition Assay (Example 8); assay type: biochemical; conditions: read-out: A: Enzymatic GRK2: IC50 (nM) (Example 8)
T1 construct: purchased SignalChem A14-10G
T1 sequence (P25098 1-689): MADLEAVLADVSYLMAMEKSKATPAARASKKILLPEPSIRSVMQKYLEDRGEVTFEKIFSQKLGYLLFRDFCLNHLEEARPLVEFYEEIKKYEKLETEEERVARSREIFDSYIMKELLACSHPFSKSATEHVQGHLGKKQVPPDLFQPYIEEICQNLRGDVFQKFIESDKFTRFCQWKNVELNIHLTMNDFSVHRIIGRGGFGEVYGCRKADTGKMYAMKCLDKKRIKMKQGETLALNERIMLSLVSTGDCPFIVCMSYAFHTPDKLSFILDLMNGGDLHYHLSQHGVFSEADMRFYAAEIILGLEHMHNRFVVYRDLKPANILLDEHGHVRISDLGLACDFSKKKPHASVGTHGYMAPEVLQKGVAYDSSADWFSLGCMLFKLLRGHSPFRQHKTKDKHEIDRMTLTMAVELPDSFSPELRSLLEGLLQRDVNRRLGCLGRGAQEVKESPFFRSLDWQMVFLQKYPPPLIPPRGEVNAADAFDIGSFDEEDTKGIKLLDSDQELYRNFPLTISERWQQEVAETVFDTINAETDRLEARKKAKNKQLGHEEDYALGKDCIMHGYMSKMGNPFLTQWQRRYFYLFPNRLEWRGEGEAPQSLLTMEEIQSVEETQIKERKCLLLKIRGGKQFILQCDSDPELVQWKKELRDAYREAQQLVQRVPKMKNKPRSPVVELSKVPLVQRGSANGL
Summary of the method: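 GRK2 (15 nM 2× enzyme solution) was preincubated 15 min with compound, then reacted 180 min at room temperature with 2× mix of 20 μM ATP plus GRKtide in HEPES pH 7.5, MgCl2, Tween-20, DTT. ADP was detected by ADP-Glo luminescence. Percent inhibition was normalised to enzyme and no-enzyme controls, with dose-response curves from threefold dilutions starting at 100 μM.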

[1] = system: PAXF1657 control empty vector cell line; assay: 7-day proliferation assay, PAXF1657 control empty vector cell line (Example 9); assay type: cell-based; conditions: 168 h; Cell Line: PAXF1657 empty vector (EV) cell line; 7-day; read-out: C: 7-day proliferation assay: IC50 GeoMean
Summary of the method: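 PAXF1657 pancreatic cancer cells (GRK2-overexpressing vs empty vector; CRISPR GRK2 knockout vs non-targeting control) were seeded at 500 cells/well in RPMI1640/10% FBS, then given a 10-point series, 30 μM-0.0002 μM in 0.3% DMSO. Medium and compound were refreshed after 3 days; CellTiter-Glo luminescence was read at day 7.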

[2] = Enzyme Assay A, ADPGlo (Example 8)

| SMILES | IC50 (GRK2; [2]) [nM] | IC50 (GRK2; ADPGlo GRK2 enzyme assay) [nM] | IC50 [1] [nM] |
| --- | --- | --- | --- |
| CCCn1c(CNc2cccc(C(=O)N[C@H]3COc4cc(F)ccc43)c2)nnc1-c1ccncn1 | 10.5 |  | > 30000 |
| O=C(N[C@H]1COCc2ccccc21)c1cccc(NCc2nnc(-c3ccncn3)n2CCO)c1 | 38.1 |  | > 2110 |
| CCn1ncc(Cl)c1CNC(=O)c1cccc(NCc2nnc(-c3ccncc3)[nH]2)c1 | 12 |  | 560 |
| COc1cnccc1CNC(=O)c1cccc(NCc2nnc(-c3ccncc3)[nH]2)c1 | 26 |  | > 10000 |
| CCOc1ccc(CNC(=O)c2cccc(NCc3nnc(-c4ccncn4)n3C)c2)cc1 |  | 35.3 | 1200 |
| Cc1ccc2c(c1)C(NC(=O)c1cccc(NCc3nnc(-c4ccncn4)n3C)c1)CO2 (stereo not shown) |  | 18.8 | 332 |
| Cn1ccnc1C(NC(=O)c1cccc(NCc2nnc(-c3ccncc3)[nH]2)c1)C1CC1 (stereo not shown) [drawing 485] | 10 |  | 5510 |
| O=C(NCc1cn[nH]c1C(F)F)c1cccc(NCc2nnc(-c3ccncc3)[nH]2)c1 | 19 |  | > 10000 |
| Cn1c(CNc2cccc(C(=O)N[C@@H]3CCOc4ccccc43)c2)nnc1-c1ccncn1 |  | 23 | 227 |
| Cc1csc(C2(NC(=O)c3cccc(NCc4nnc(-c5ccncn5)n4C)c3)CCC2)n1 | 140 |  | 445 |
| Cc1cc(CNC(=O)c2cccc(NCc3nnc(-c4ccncn4)n3C)c2)nn1C | 41 |  | > 30000 |
| Cn1c(CNc2cccc(C(=O)NC(C)(C)c3ccncc3)c2)nnc1-c1ccncn1 | 49 |  | > 10000 |
| COc1cccc([C@H](C)NC(=O)c2ccnc(NCc3nnc(-c4ccncn4)n3C)c2)c1 |  | 125 | 8000 |
| C#Cc1ccc(OS(=O)(=O)F)cc1CNC(=O)c1cccc(NCc2nnc(-c3ccncc3)[nH]2)c1 | 28.4 |  | 7440 |
| Cn1c(CNc2cccc(C(=O)NC3COc4ccc(F)cc43)c2)nnc1-c1ccncn1 (stereo not shown) |  | 26.6 | 1260 |
| COc1ccc(CNC(=O)c2cccc(NCc3nnc(-c4ccncn4)n3C)c2)c(C)n1 |  | 28.5 | > 30000 |
| Cn1c(CNc2cccc(C(=O)NCc3cncc4c3CCC4)c2)nnc1-c1ccncn1 |  | 15.3 | > 11700 |
| COCCOc1ccc(CNC(=O)c2cccc(NCc3nnc(-c4ccncn4)n3C)c2)cc1 | 20.4 |  | > 14200 |
| Cc1cc(C)c(CNC(=O)c2cccc(NCc3nnc(-c4ccncn4)n3C)c2)cn1 |  | 17.8 | 803 |
| Cn1c(CNc2cccc(C(=O)NCc3cscn3)c2)nnc1-c1ccncn1 | 13 |  | > 30000 |
| Cn1c(CNc2cccc(C(=O)NC3(c4ccccc4)CC3)c2)nnc1-c1ccncn1 | 34 |  | > 10000 |
| Cn1c(CNc2cccc(C(=O)NCc3cnn4c3CCCC4)c2)nnc1-c1ccncn1 |  | 71.6 | > 24800 |
| O=C(NCc1ncco1)c1cccc(NCc2nnc(-c3ccncc3)[nH]2)c1 | 25 |  | > 10000 |
| O=C(NC1(c2ccncn2)CC1)c1cccc(NCc2nnc(-c3ccncc3)[nH]2)c1 | 13 |  | > 10000 |
| Cc1cccc2ncc(CNC(=O)c3cccc(NCc4nnc(-c5ccncc5)[nH]4)c3)n12 |  | 8.9 | > 10200 |
| Cn1c(CNc2cccc(C(=O)NCc3c(F)ccc4[nH]cnc34)c2)nnc1-c1ccncn1 |  | 19.2 | 22600 |
| Cn1c(CNc2cccc(C(=O)NCc3ccccc3)c2)nnc1-c1ccncn1 | 20 |  | > 10000 |

Continued, in another order:

| IC50 (GRK2; [2]) [nM] | IC50 (GRK2; ADPGlo GRK2 enzyme assay) [nM] | SMILES | IC50 [1] [nM] |
| --- | --- | --- | --- |
| 10 |  | COc1cccc(CNC(=O)c2cccc(NCc3nnc(-c4ccncn4)n3C)c2)c1F | > 10000 |
|  | 68.9 | Cn1c(CNc2cccc(C(=O)NC(c3ccccn3)C3CC3)c2)nnc1-c1ccncn1 (stereo not shown) | 2630 |
| 32 |  | CC(C)C(NC(=O)c1cccc(NCc2nnc(-c3ccncn3)n2C)c1)c1ccncc1 (stereo not shown) | 1170 |
|  | 74 | Cc1ccc(C(C)NC(=O)c2cccc(NCc3nnc(-c4ccncn4)n3C)c2)nc1 (stereo not shown) | > 5020 |
| 410 |  | C[C@H](NC(=O)c1cccc(NCc2nnc(-c3ccncn3)n2C)c1)c1cncs1 | > 10000 |
| 22 |  | Cn1c(CNc2cccc(C(=O)NCc3cccc(C(F)F)c3)c2)nnc1-c1ccncn1 | > 10000 |
| 34 |  | Cn1c(CNc2cccc(C(=O)NC(CO)c3cccc(C(F)(F)F)c3)c2)nnc1-c1ccncn1 (stereo not shown) | > 10000 |
| 36 |  | COCC(NC(=O)c1cccc(NCc2nnc(-c3ccncn3)n2C)c1)c1ccccc1 (stereo not shown) | > 10000 |
| 19 |  | Cn1c(CNc2cccc(C(=O)NCc3ccc(F)cc3)c2)nnc1-c1ccncn1 | 2160 |
|  | 9.42 | Cn1c(CNc2cccc(C(=O)NCc3c(F)cccc3NS(C)(=O)=O)c2)nnc1-c1ccncn1 | 3250 |
|  | 4.97 | Cc1ccccc1[C@@H](C#N)NC(=O)c1cccc(NCc2nnc(-c3ccncn3)n2C)c1 | 35.5 |
|  | 6.52 | COc1cccc([C@H](C)NC(=O)c2cccc(NCc3nnc4n3CCOc3cnccc3-4)c2)c1 | 10100 |
| 630 |  | Cc1cccnc1C(C)(C)NC(=O)c1cccc(NCc2nnc(-c3ccncn3)n2C)c1 | > 10000 |
|  | 2.97 | C[C@H](NC(=O)c1cccc(NCc2nnc(-c3ccncc3)n2C)c1)c1ncccc1Cl | > 1850 |
|  | 8.2 | COc1cccc(C)c1CNC(=O)c1cccc(NCc2nnc(-c3ccncn3)n2C)c1 | 246 |
| 420 |  | C[C@H](NC(=O)c1cccc(NCc2nnc(-c3ccncn3)n2C)c1)c1cccnc1 [drawing 345] | > 8570 |
| 290 |  | COc1cccnc1CNC(=O)c1cccc(NCc2nnc(-c3ccncn3)n2C)c1 | > 10000 |
| 430 |  | Cc1ccnc(CNC(=O)c2cccc(NCc3nnc(-c4ccncn4)n3C)c2)c1 | > 10000 |
|  | 3.91 | Cc1cccc2ncc(CNC(=O)c3cccc(NCc4nnc(-c5ccncc5F)n4C)c3)n12 | > 1360 |
| 200 |  | Cn1c(CNc2cccc(C(=O)NC3(c4cccnc4)CC3)c2)nnc1-c1ccncn1 | 583 |
| 21 |  | CC(NC(=O)c1cccc(NCc2nnc(-c3ccncn3)n2C)c1)c1ccc2c(c1)CC(=O)N2C (stereo not shown) | 158 |
|  | 50.2 | Cc1ccnc(CNC(=O)c2cccc(NCc3nnc(-c4ccncn4)n3C)c2)c1F | > 30000 |
|  | 52.8 | C[C@H](NC(=O)c1cccc(NCc2nnc(-c3ccncc3F)n2C)c1)c1ncccc1Cl | 1030 |
| 54 |  | COc1cc(F)cc(CNC(=O)c2cccc(NCc3nnc(-c4ccncn4)n3C)c2)c1 | > 10000 |
|  | 17.7 | Cn1c(CNc2cccc(C(=O)N[C@H](C#N)c3cc(F)ccc3F)c2)nnc1-c1ccncn1 | 808 |
| 10 |  | Cn1c(CNc2cccc(C(=O)N[C@@H](CO)c3cc(F)ccc3F)c2)nnc1-c1ccncn1 | > 30000 |
| 67 |  | CCCC(NC(=O)c1cccc(NCc2nnc(-c3ccncn3)n2C)c1)c1ccccn1 (stereo not shown) | 1220 |
| 9.4 |  | CC(NC(=O)c1cccc(NCc2nnc(-c3ccncn3)n2C)c1)c1ncccc1Br (stereo not shown) | > 10000 |
|  | 20.3 | Cn1c(CNc2cccc(C(=O)N[C@H](C#N)c3cccnc3)c2)nnc1-c1ccncn1 | 3430 |
